Assay results reported in article PMC12511262 (European Journal of Clinical Pharmacology, 2025).
Read-outs that look alike come from different tables or passages of the source.

Columns and labels:
[1] = single oral dose of 60 mg [14C]-quizartinib, six healthy men; cited from earlier work
[2] = Population pharmacokinetic model of quizartinib (NONMEM v7.5) applied to the external evaluation dataset; type: in vivo, human; conditions: popPK estimates
Source text: Parameter values and covariate relationships were fixed according to those reported in the original publication, without any re-estimation or modification. Key model parameters were described at Table 2: Predictions were generated using recorded doses, sampling times, and covariate values from the evaluation dataset.

[3] = FLT3-ITD negative AML patients, steady state

CC(C)(C)c1cc(NC(=O)Nc2ccc(-c3cn4c(n3)sc3cc(OCCN5CCOCC5)ccc34)cc2)no1 [quizartinib]
time of maximum blood concentration post-dosing [1]: four
bioavailability ([2]; human, plasma, oral, FLT3-ITD negative AML patients, steady state, read-out: F1 Bioavailability, Mean): 77%
bioavailability ([2]; human, plasma, oral, FLT3-ITD negative AML patients, steady state, read-out: F1 Bioavailability, Median): 75%
Vd ([2]; human, plasma, oral, FLT3-ITD negative AML patients, steady state, read-out: V2 Volume of distribution (central compartment), Mean): 219 L
Vd ([2]; human, plasma, oral, FLT3-ITD negative AML patients, steady state, read-out: V2 Volume of distribution (central compartment), Median): 227 L
half-life ([2]; human, plasma, oral, FLT3-ITD negative AML patients, steady state, read-out: t1/2 Half-life, Mean (converted)): 3.43 days
half-life ([2]; human, plasma, oral, FLT3-ITD negative AML patients, steady state, read-out: t1/2 Half-life, Median (converted)): 3.44 days
bioavailability ([2]; human, plasma, oral, median, read-out: bioavailability factor (F1), median): 75%
clearance ([2]; human, plasma, oral, median, read-out: median clearance (CL) (converted)): 29.3 mL/min
CL Clearance, Median [2, 3]: 1.76
KA Absorption rate constant, Mean [2, 3]: 1.68
KA Absorption rate constant, Median [2, 3]: 1.68
KE Elimination rate constant, Mean [2, 3]: 0.01
KE Elimination rate constant, Median [2, 3]: 0.01
CL Clearance, Mean ([2]; FLT3-ITD negative AML patients, steady state, oral quizartinib 30 mg daily with food (one patient 60 mg)): 1.97
V3 (peripheral compartment), median ([2]; median): 176.03 L
V4, median ([2]; median): 39.30 L
